pKd: −log10 of the molar value.
Biological target: T1, c-MYC (Homo sapiens, UniProt P01106)
T1 construct: recombinant human c-MYC protein (ab169901, Abcam)
Assay: microscale thermophoresis with Blue-NHS labelled c-MYC ([…])
Format: binding

T1 sequence (P01106 16-454): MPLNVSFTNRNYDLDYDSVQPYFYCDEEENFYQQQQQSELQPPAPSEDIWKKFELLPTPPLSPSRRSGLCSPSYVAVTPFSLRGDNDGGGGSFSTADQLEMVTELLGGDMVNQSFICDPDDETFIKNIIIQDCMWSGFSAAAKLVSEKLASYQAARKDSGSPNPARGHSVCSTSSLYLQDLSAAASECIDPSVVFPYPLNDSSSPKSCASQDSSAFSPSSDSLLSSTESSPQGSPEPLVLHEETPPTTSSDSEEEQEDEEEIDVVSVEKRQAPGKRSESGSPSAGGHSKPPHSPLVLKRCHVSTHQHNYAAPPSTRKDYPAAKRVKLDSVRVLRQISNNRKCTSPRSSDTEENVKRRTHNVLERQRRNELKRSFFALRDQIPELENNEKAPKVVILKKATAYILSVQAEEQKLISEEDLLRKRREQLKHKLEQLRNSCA

COc1ccc(-c2ccc3cc(C(=O)O)ccc3c2)cc1C12CC3CC(CC(C3)C1)C2 [adapalene]
pKd: 5.52

Source: publication PMC10452460, “In Silico, In Vitro, and In Vivo Investigations on Adapalene as Repurposed Third Generation Retinoid against Multiple Myeloma and Leukemia” (Cancers, 2023)
